# Reference: patent publication US12692261B2, “Substituted heterocyclic compounds and therapeutic uses thereof” (Bayer Aktiengesellschaft, priority 2020, dated 2026)
# Where two headings read alike, the source gives them in different places.
# Assays:
# [1] = target: T1, full-length human CSNK1A1 (Homo sapiens, UniProt P48729); test: CSNK1A1 Assay 2 (ADP-Glo, 1 μM ATP, substrate biotin-Ahx-KRRRAL-pS-VASLPGL); format: biochemical; settings: Table 3, read-out: CSNK1A1 Assay 2 IC50 [mol/l] (median)
# T1 construct: N-terminal Glutathion-S-Transferase (GST) and full-length human CSNK1A1; purchased Life Technologies PV4174; host or cells: baculovirus infected insect cells
# T1 sequence (P48729 whole entry): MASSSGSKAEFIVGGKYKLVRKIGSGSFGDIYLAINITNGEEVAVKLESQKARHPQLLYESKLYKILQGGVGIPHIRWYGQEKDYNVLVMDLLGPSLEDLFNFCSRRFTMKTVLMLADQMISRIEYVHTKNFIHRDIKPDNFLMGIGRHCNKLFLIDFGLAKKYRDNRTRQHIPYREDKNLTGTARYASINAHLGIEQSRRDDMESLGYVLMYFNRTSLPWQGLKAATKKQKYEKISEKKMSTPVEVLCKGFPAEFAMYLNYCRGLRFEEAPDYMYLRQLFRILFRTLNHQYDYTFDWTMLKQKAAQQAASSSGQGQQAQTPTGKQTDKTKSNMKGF
# Outline: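 GST-tagged full-length human CSNK1A1 from baculovirus-infected insect cells (about 0.0375 ng/μL), preincubated 15 min at 22 °C with compound in HEPES pH 7.5 buffer, with 1 μM ATP and biotin-Ahx-KRRRAL-pS-VASLPGL substrate. ADP formed read by ADP-Glo luminescence.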
# [2] = target: T2, wild-type Epidermal Growth Factor Receptor (EGFR) (Homo sapiens, UniProt P00533); test: WT-EGFR Kinase Assay (TR-FRET, 2 mM ATP); format: biochemical
# T2 construct: a fragment of human EGFR (amino acids R669 to A1210); made in house; host or cells: Sf9 insect cells
# T2 sequence (P00533 669-1210): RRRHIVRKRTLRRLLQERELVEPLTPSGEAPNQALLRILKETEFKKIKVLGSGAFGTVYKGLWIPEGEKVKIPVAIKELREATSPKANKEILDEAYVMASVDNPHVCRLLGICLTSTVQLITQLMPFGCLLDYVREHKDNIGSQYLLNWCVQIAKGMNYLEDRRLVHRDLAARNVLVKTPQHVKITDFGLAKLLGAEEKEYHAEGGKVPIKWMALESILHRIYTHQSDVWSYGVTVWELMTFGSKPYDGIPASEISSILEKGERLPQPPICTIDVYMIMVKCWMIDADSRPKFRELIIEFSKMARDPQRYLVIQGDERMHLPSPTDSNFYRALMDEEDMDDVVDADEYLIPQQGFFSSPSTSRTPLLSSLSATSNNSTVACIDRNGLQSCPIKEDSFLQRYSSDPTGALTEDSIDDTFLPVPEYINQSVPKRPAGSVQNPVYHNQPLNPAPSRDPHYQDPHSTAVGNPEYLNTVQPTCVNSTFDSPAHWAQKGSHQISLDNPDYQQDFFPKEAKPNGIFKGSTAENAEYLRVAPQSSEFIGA
# Source text: Inhibitory activity of compounds of the present invention against wild-type Epidermal Growth Factor Receptor (EGFR) was quantified employing the TR-FRET based EGFR assay as described in the following paragraphs.
# Recombinant fusion protein of N-terminal Glutathion-S-Transferase (GST) and a fragment of human EGFR (amino acids R669 to A1210), expressed in Sf9 insect cells and purified via affinity chromatography using Glutathion Sepharose as described above, was used as kinase. As substrate for the kinase reaction the biotinylated peptide biotin-Ahx-[…] (C-terminus in amide form) was used which can be purchased e.g. form the company Biosynthan GmbH (Berlin-Buch, Germany).
# For the assay 50 nl of a 100 fold concentrated solution of the test compound in DMSO was pipetted into either a black low volume 384 well microtiter plate or a black 1536 well microtiter plate (both Greiner Bio-One, Frickenhausen, Germany), 2 μL of a solution of EGFR in aqueous assay buffer [50 mM Hepes pH 7.0, 10 mM MgCl2, 1 mM dithiothreitol, 0.5 mM EGTA, 0.3 mM activated sodium ortho-vanadate, 0.005% (w/v) bovine serum albumin, 0.005% (v/v) Tween-20] were added and the mixture was incubated for 15 min at 22° C. to allow pre-binding of the test compounds to the enzyme before the start of the kinase reaction. […] The concentration of EGFR was adjusted depending of the activity of the enzyme lot and was chosen appropriate to have the assay in the linear range, typical concentration was 7.6 pg/μL. The reaction was stopped by the addition of 3 μL of a solution of HTRF detection reagents (83.3 nM streptavidine-XL665 [Cisbio Bioassays, Codolet, France] and 1.67 nM PT66-Tb-Cryptate, a terbium-cryptate labelled anti-phospho-tyrosine antibody from Cisbio Bioassays [instead of the PT66-Tb-cryptate PT66-Eu-Chelate from Perkin Elmer can also be used]) in an aqueous EDTA-solution (133.3 mM EDTA, 0.2% (w/v) bovine serum albumin in 50 mM HEPES pH 7.5).
# The resulting mixture was incubated 1 h at 22° C. to allow the binding of the biotinylated phosphorylated peptide to the streptavidine-XL665 and the PT66-Tb-Cryptate. Subsequently the amount of phosphorylated substrate was evaluated by measurement of the resonance energy transfer from the PT66-Tb-Cryptate to the streptavidine-XL665. Therefore, the fluorescence emissions at 620 nm and 665 nm after excitation at 337 nm were measured in a HTRF reader, e.g. a Pherastar (BMG Labtechnologies, Offenburg, Germany) or a Viewlux (Perkin-Elmer). The ratio of the emissions at 665 nm and at 622 nm was taken as the measure for the amount of phosphorylated substrate.
# [3] = read-out: EGFR Wildtyp 2 mM ATP IC50 [mol/l] (median), Table 4
# [4] = EGFR Wildtyp 2 mM ATP IC50 [mol/l] (median), Table 4
SMILES,IC50 [1] [nM],"IC50 [2, 3] [nM]","IC50 [2, 4] [nM]"
"O=C(Nc1cc(-c2[nH]c3c(OCC(F)(F)F)ncnc3c2-c2ccccn2)ccn1)C(CC(F)F)c1ccc(F)cc1 (single isomer, unassigned) [Example 124, (2R or S)-4,4-difluoro-2-(4-fluorophenyl)-N-{4-[7-(pyridin-2-yl)-4-(2,2,2-trifluoroethoxy)-5H-pyrrolo[3,2-d]pyrimidin-6-yl]pyridin-2-yl}butanamide]",30,> 20000,–
"O=C(Nc1cc(-c2[nH]c3cc(F)cnc3c2-c2ccccn2)ccn1)C(CC(F)F)c1ccc(F)cc1 (single isomer, unassigned; (-)) [Example 18, (−)-4,4-difluoro-2-(4-fluorophenyl)-N-{4-[6-fluoro-3-(pyridin-2-yl)-1H-pyrrolo[3,2-b]pyridin-2-yl]pyridin-2-yl}butanamide]",16.2,> 20000,–
"O=C(Nc1cc(-c2[nH]c3c(C4CCCO4)cc(F)nc3c2-c2ccccn2)ccn1)C(CC(F)F)c1ccc(F)cc1 (racemic) [Example 114, (2RS)-4,4-difluoro-2-(4-fluorophenyl)-N-(4-{5-fluoro-3-(pyridin-2-yl)-7-[(2RS)-tetrahydrofuran-2-yl]-1H-pyrrolo[3,2-b]pyridin-2-yl}pyridin-2-yl)butanamide]",6.74,–,> 20000
"Cc1cc2[nH]c(-c3ccnc(NC(=O)C(CC(F)F)c4ccc(F)cc4)c3)c(-c3ccccn3)c2nc1F (single isomer, unassigned) [Example 35, 4,4-difluoro-N-{4-[5-fluoro-6-methyl-3-(pyridin-2-yl)-1H-pyrrolo[3,2-b]pyridin-2-yl]pyridin-2-yl}-2-(4-fluorophenyl)butanamide]",2.69,> 20000,–
"Cc1cc2[nH]c(-c3ccnc(NC(=O)C(CC(F)F)c4ccc(F)cc4)c3)c(-c3ccccn3)c2nc1F (single isomer, unassigned) [Example 34, 4,4-difluoro-N-{4-[5-fluoro-6-methyl-3-(pyridin-2-yl)-1H-pyrrolo[3,2-b]pyridin-2-yl]pyridin-2-yl}-2-(4-fluorophenyl)butanamide]",3.79,–,> 20000
"O=C(Nc1cc(-c2[nH]c3cc(F)cnc3c2-c2ccccc2)ccn1)C(CC(F)F)c1ccc(F)cc1 (racemic) [Example 19, 4,4-difluoro-2-(4-fluorophenyl)-N-[4-(6-fluoro-3-phenyl-1H-pyrrolo[3,2-b]pyridin-2-yl)pyridin-2-yl]butanamide]",9.22,–,> 20000
"O=C(Nc1cc(-c2[nH]c3nccnc3c2-c2ccccn2)ccn1)C(CC(F)F)c1ccc(F)cc1 (racemic) [Example 31, (2RS)-4,4-difluoro-2-(4-fluorophenyl)-N-{4-[7-(pyridin-2-yl)-5H-pyrrolo[2,3-b]pyrazin-6-yl]pyridin-2-yl}butanamide]",3.04,–,> 20000
"O=C(Nc1cc(-c2[nH]c3c(OCC(F)F)cc(F)nc3c2-c2ccccn2)ccn1)C(CC(F)F)c1ccc(F)cc1 (single isomer, unassigned) [Example 30, (2R or S)—N-{4-[7-(2,2-difluoroethoxy)-5-fluoro-3-(pyridin-2-yl)-1H-pyrrolo[3,2-b]pyridin-2-yl]pyridin-2-yl}-4,4-difluoro-2-(4-fluorophenyl)butanamide]",8.84,> 20000,–
"O=C(Nc1cc(-c2[nH]c3c(OCC(F)(F)F)ncnc3c2-c2ccccn2)ccn1)C(CC(F)F)c1ccc(F)cc1 (single isomer, unassigned) [Example 123, (2R or S)-4,4-difluoro-2-(4-fluorophenyl)-N-{4-[7-(pyridin-2-yl)-4-(2,2,2-trifluoroethoxy)-5H-pyrrolo[3,2-d]pyrimidin-6-yl]pyridin-2-yl}butanamide]",4.5,–,> 20000
"O=C(Nc1cc(-c2[nH]c3cccnc3c2-c2ncccn2)ccn1)C(CC(F)F)c1ccc(F)cc1 (racemic) [Example 112, (2RS)-4,4-difluoro-2-(4-fluorophenyl)-N-[4-(3-pyrimidin-2-yl-1H-pyrrolo[3,2-b]pyridin-2-yl)-2-pyridyl]butanamide]",10.1,–,> 20000
"O=C(Nc1cc(-c2[nH]c3c(C4CCCO4)cc(F)nc3c2-c2ccccn2)ccn1)C(CC(F)F)c1ccc(F)cc1 (single isomer, unassigned) [Example 115, (2R or S)-4,4-difluoro-N-(4-{5-fluoro-7-[(2R or S)-oxolan-2-yl]-3-(pyridin-2-yl)-1H-pyrrolo[3,2-b]pyridin-2-yl}pyridin-2-yl)-2-(4-fluorophenyl)butanamide]",5.84,–,19600
"O=C(Nc1cc(-c2[nH]c3cc(F)cnc3c2-c2ccccn2)ccn1)C(CC(F)F)c1ccc(F)cc1 (single isomer, unassigned; (+)) [Example 17, (+)-4,4-difluoro-2-(4-fluorophenyl)-N-{4-[6-fluoro-3-(pyridin-2-yl)-1H-pyrrolo[3,2-b]pyridin-2-yl]pyridin-2-yl}butanamide]",1.7,–,> 20000
"Cc1ccc2[nH]c(-c3ccnc(NC(=O)C(CC(F)F)c4ccc(F)cc4)c3)c(-c3ccccn3)c2n1 (single isomer, unassigned) [Example 5, 4,4-difluoro-2-(4-fluorophenyl)-N-{4-[5-methyl-3-(pyridin-2-yl)-1H-pyrrolo[3,2-b]pyridin-2-yl]pyridin-2-yl}butanamide]",4.43,–,> 20000
"COc1cc(F)nc2c(-c3ccccn3)c(-c3ccnc(NC(=O)C(CC(F)F)c4ccc(F)cc4)c3)[nH]c12 (single isomer, unassigned; (-)) [Example 41, (−)-4,4-difluoro-N-{4-[5-fluoro-7-methoxy-3-(pyridin-2-yl)-1H-pyrrolo[3,2-b]pyridin-2-yl]pyridin-2-yl}-2-(4-fluorophenyl)butanamide]",3.37,> 20000,–
"O=C(Nc1cc(-c2[nH]c3ccc(F)nc3c2-c2cc(F)ccn2)ccn1)C(CC(F)F)c1ccc(F)cc1 (single isomer, unassigned) [Example 97, (2R or S)-4,4-difluoro-N-{4-[5-fluoro-3-(4-fluoropyridin-2-yl)-1H-pyrrolo[3,2-b]pyridin-2-yl]pyridin-2-yl}-2-(4-fluorophenyl)butanamide]",36,> 20000,–
"O=C(Nc1cc(-c2[nH]c3cccnc3c2-c2cccc(F)n2)ccn1)C(CC(F)F)c1ccc(F)cc1 (racemic) [Example 25, 4,4-difluoro-2-(4-fluorophenyl)-N-{4-[3-(6-fluoropyridin-2-yl)-1H-pyrrolo[3,2-b]pyridin-2-yl]pyridin-2-yl}butanamide]",2.77,–,> 20000
"O=C(Nc1cc(-c2[nH]c3c(C4CCCO4)cc(F)nc3c2-c2ccccn2)ccn1)C(CC(F)F)c1ccc(F)cc1 (single isomer, unassigned) [Example 116, (2R or S)-4,4-difluoro-N-(4-{5-fluoro-7-[(2R or S)-oxolan-2-yl]-3-(pyridin-2-yl)-1H-pyrrolo[3,2-b]pyridin-2-yl}pyridin-2-yl)-2-(4-fluorophenyl)butanamide]",5.1,–,15100
"Cc1cc2[nH]c(-c3ccnc(NC(=O)C(CC(F)F)c4ccc(F)cc4)c3)c(-c3ccccn3)c2nc1F (racemic) [Example 33, (rac)-4,4-difluoro-N-{4-[5-fluoro-6-methyl-3-(pyridin-2-yl)-1H-pyrrolo[3,2-b]pyridin-2-yl]pyridin-2-yl}-2-(4-fluorophenyl)butanamide]",19.5,–,> 20000
"O=C(Nc1cc(-c2[nH]c3c(OCC4CC4)ncnc3c2-c2ccccn2)ccn1)C(CC(F)F)c1ccc(F)cc1 (single isomer, unassigned) [Example 130, (2R or S)—N-{4-[4-(cyclopropylmethoxy)-7-(pyridin-2-yl)-5H-pyrrolo[3,2-d]pyrimidin-6-yl]pyridin-2-yl}-4,4-difluoro-2-(4-fluorophenyl)butanamide]",43.7,–,6670
